The subject of test [1] is BALB/3T3. As to the kind of experiment: Growth inhibition of BALB/c mouse cloned 3T3/A31 cells at 0.01 to 100 ug/mL after 72 hrs by nigrosin assay. Format: functional, cell-based.
Test [2] deals with BALB/3T3. Briefly: (§1) Growth inhibition of BALB/c mouse cloned 3T3/A31 cells after 72 hrs by nigrosin assay. In kind it is functional, cell-based.
A short description of test [3]: as §1. Format: functional, cell-based. The conditions noted are these: BALB/3T3, 72 h.
The subject of test [4] is BALB/3T3. As to the kind of experiment: Growth inhibition of BALB/c mouse cloned 3T3/A31 cells at 10 to 100 ug/mL after 72 hrs by nigrosin assay. Format: functional, cell-based.
In test [5] the test system is BALB/3T3. Briefly: Growth inhibition of BALB/c mouse cloned 3T3/A31 cells at 100 ug/mL after 72 hrs by nigrosin assay. Format: functional, cell-based.
Test [6] concerns BALB/3T3. Briefly: Stimulation of BALB/c mouse cloned 3T3/A31 cells growth at 0.01 to 0.1 ug/mL. In kind it is functional.
Test [7] concerns BALB/3T3. Briefly: Cytotoxicity against BALB/c mouse cloned 3T3/A31 cells at 1 to 100 ug/mL after 72 hrs by nigrosin assay. In kind it is functional, cell-based.
Test [8] deals with BALB/3T3. Briefly: Stimulation of BALB/c mouse cloned 3T3/A31 cells growth at 0.01 to 1 ug/mL. Format: functional.
The subject of test [9] is BALB/3T3. Briefly: Stimulation of BALB/c mouse cloned 3T3/A31 cells proliferation at 0.01 to 10 ug/mL. Format: functional, cell-based.
A short description of test [10]: Stimulation of BALB/c mouse cloned 3T3/A31 cells proliferation at 0.01 ug/mL. In kind it is functional, BALB/3T3.

The source made the active and inactive calls. The rule behind the calls is not given here.

Data on 14 compounds can be found in ChEMBL document CHEMBL1141813, “Activities of plant-derived phenols in a fibroblast cell culture model” (J Nat Prod, 1999).

Broadly, the IC50 is the concentration that inhibits the measured activity by half. In the case of `O=c1cc(-c2ccc(O)cc2)oc2cc(O)cc(O)c12` [APIGENIN], the result in [1] was Active. In [2], the Activity entry is “Dose-dependent effect”. The compound also came in with an IC50 in test [3] of 141 µM.
As for `O=c1cc(-c2ccccc2)oc2cc(O)c(O)c(O)c12` [BAICALEIN], the outcome in [4] was Active. Also, the Activity entry in [2] is “Dose-dependent effect”. Further, it took 342 µM to reach half-maximal inhibition in [3] (IC50).
In the same order, the values of `COc1ccc(-c2coc3cc(O)cc(O)c3c2=O)cc1` [BIOCHANIN] are “Active”, “Dose-dependent effect” and 220 µM.
On to `O=C(O)/C=C/c1ccc(O)c(O)c1` [CAFFEIC ACID], for which, in test [4], the outcome was Active. Moreover, the Activity result in [2] is “Dose-dependent effect”. In test [3], this compound returned an IC50 of 554 µM.
Take `Oc1cc(O)c2c(c1)OC(c1ccc(O)c(O)c1)C(O)C2` (configuration not stated) [CATECHIN]: the result in test [4] was Active. For the same compound, the Activity entry in test [2] was “Dose-dependent effect”. Further, in test [3], the half-inhibitory concentration (IC50) is > 344 µM.
As to `O=C(/C=C/c1ccc(O)c(O)c1)O[C@@H]1C[C@](O)(C(=O)O)C[C@@H](O)[C@H]1O` [CHLOROGENIC ACID], the outcome in test [5] was Active. For the same compound, the Activity in [6] was 5.3%; in test [2] it was “Dose-dependent effect”. Moreover, the concentration for half-maximal inhibition (IC50) in test [3] was > 280 µM.
In the case of `O=c1cc(-c2ccccc2)oc2cc(O)cc(O)c12` [CHRYSIN], the outcome in test [7] was Active. Moreover, in test [2], the Activity result is “Dose-dependent effect”. For the same compound, in [3], the IC50 was determined as 248 µM.
In the case of `O=C(O)/C=C/c1ccccc1` [CINNAMIC ACID], the outcome in test [4] was Active. The Activity result in [2] was “Dose-dependent effect”. The half-inhibitory concentration (IC50) in test [3] was found to be 671 µM.
On to `O=c1cc(-c2ccccc2)oc2ccccc12` [FLAVONE], for which the outcome in [7] was Active. In addition, in [2], the Activity entry was “Dose-dependent effect”. The compound further gave an IC50 in [3] of 287 µM.
Turning to `O=c1c(-c2ccc(O)cc2)coc2cc(O)cc(O)c12` [GENISTEIN], the outcome in test [7] was Active. The Activity in test [6] is 5.3%; in [2] it was “Dose-dependent effect”. This compound registered a half-maximal inhibitory concentration (IC50) in test [3] of 184 µM.
Consider `COc1ccc(/C=C/C(=O)O)cc1OC` [O,O'-DIMETHYLCAFFEIC ACID], for which the outcome in test [4] was Active. Further, in [2], the Activity entry is “Dose-dependent effect”. In test [3], the IC50 is > 480 µM.
On to `O=c1c(O)c(-c2ccc(O)c(O)c2)oc2cc(O)cc(O)c12` [QUERCETIN], for which the Activity in [6] is 5.3%; in test [2], “Dose-dependent effect”. Moreover, the outcome in test [4] was Active. Besides, the concentration for half-maximal inhibition (IC50) in test [3] was determined as 217 µM.
As to `C[C@@H]1O[C@@H](Oc2c(-c3ccc(O)c(O)c3)oc3cc(O)cc(O)c3c2=O)[C@H](O)[C@H](O)[C@H]1O` [QUERCITRIN], the figures for the Activity in test [8] and in test [2] were 4.9% and “Dose-dependent effect”, respectively. For the same compound, the result in [5] was Active. In addition, the half-maximal inhibitory concentration (IC50) in test [3] is > 223 µM.
As for `C[C@@H]1O[C@@H](OC[C@H]2O[C@@H](Oc3c(-c4ccc(O)c(O)c4)oc4cc(O)cc(O)c4c3=O)[C@H](O)[C@@H](O)[C@@H]2O)[C@H](O)[C@H](O)[C@H]1O` [RUTIN], in test [9], the outcome was Active. Moreover, the Activity in test [10] is 30.4%; in [2] it was “Dose-dependent effect”. The half-inhibitory concentration (IC50) in test [3] was > 164 µM.
